pIC50: −log10 of the molar value.

The assay addresses T1, TGFβ R1 (Homo sapiens, UniProt P36897).
T1 sequence (P36897 34-503): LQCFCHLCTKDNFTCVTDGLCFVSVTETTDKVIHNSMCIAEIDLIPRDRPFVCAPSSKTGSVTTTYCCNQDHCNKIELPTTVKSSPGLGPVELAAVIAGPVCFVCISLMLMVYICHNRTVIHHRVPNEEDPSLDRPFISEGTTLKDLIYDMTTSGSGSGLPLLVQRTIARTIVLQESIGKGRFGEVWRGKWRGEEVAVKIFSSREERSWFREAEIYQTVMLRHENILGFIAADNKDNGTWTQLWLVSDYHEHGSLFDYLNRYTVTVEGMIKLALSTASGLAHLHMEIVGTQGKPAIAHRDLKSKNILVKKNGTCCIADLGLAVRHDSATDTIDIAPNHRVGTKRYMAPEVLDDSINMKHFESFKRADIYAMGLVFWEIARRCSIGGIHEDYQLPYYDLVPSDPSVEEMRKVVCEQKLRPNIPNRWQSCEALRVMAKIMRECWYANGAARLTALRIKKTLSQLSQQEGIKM
As to the kind of experiment: TGFβ R1 autophosphorylation protocol (33P-ATP, phosphocellulose filter plate). It is filed as biochemical. Particulars: 10 uM ATP, 170 nM TGFβ R1, 20 minutes at room temperature, read-out: IC50 for Kinase Inhibition. In a few lines: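 Incorporation of 33P from γ-33P-ATP (10 uM ATP final) into the kinase itself (170 nM) measured by phosphocellulose capture and scintillation counting. Incubation 20 min at room temperature in 20 mM MOPS pH 7 with […]; final DMSO ≤1%.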
One may read the pIC50 as the IC50 on a negative log10 scale, so that one unit is a factor of ten. Consider `COc1cnc(-c2cc(Cl)ccc2F)nc1Nc1ccncc1C(=O)NCCNCCOC1O[C@H](CO)[C@@H](O)[C@H](O)[C@H]1O` (stereo partly shown) [Compound 144, 4-[2-(5-chloro-2-fluoro-phenyl)-5-methoxy-pyrimidin-4-ylamino]-N-{2-[2-(3,4,5-trihydroxy-6-hydroxymethyl-tetrahydro-pyran-2-yloxy)-ethylamino]-ethyl)-nicotinamide], for which the pIC50 is 8.00.
The same measure for `COc1cnc(-c2cc(Cl)ccc2F)nc1Nc1ccncc1C(=O)NCCNC(=O)COC1O[C@H](CO)[C@@H](O)[C@H](O)[C@H]1O` (stereo partly shown) [Compound 145, 4-[2-(5-Chloro-2-fluoro-phenyl)-5-methoxy-pyrimidin-4-ylamino]-N-{2-[2-(3,4,5-trihydroxy-6-hydroxymethyl-tetrahydro-pyran-2-yloxy)-acetylamino]-ethyl)-nicotinamide]: 7.28.
On to `COc1cnc(-c2cc(Cl)ccc2F)nc1Nc1ccncc1C(=O)NCCCNC(=O)CC1O[C@H](CO)[C@@H](O)[C@H](O)[C@H]1O` (stereo partly shown) [Compound 146], for which the pIC50 is 6.99.
The same measure for `COc1cnc(-c2cc(Cl)ccc2F)nc1Nc1ccncc1C(=O)NCCNC(=O)CC1O[C@H](CO)[C@@H](O)[C@H](O)[C@H]1O` (stereo partly shown) [Compound 147, 4-[2-(5-Chloro-2-fluoro-phenyl)-5-methoxy-pyrimidin-4-ylamino]-N-{2-[2-(3,4,5-trihydroxy-6-hydroxymethyl-tetrahydro-pyran-2-yl)-acatylamino]-ethyl}-nicotinamide]: 6.90; for `COc1cnc(-c2cc(Cl)ccc2F)nc1Nc1ccncc1C(=O)NC1CCN(C(=O)CC2O[C@H](CO)[C@@H](O)[C@H](O)[C@H]2O)CC1` (stereo partly shown) [Compound 148, 4-[2-(5-Chloro-2-fluoro-phenyl)-5-methoxy-pyrimidin-4-ylamino]-N-{1-[2-(3,4,5-trihydroxy-6-hydroxymethyl-tetrahydro-pyran-2-yl)-acetyl]-piperidin-4-yl}-nicotinamide]: 6.68; for `COc1cnc(-c2cc(Cl)ccc2F)nc1Nc1ccncc1C(=O)NCCCN(C(=O)CC1O[C@H](CO)[C@@H](O)[C@H](O)[C@H]1O)C(C)C` (stereo partly shown) [Compound 149, 4-[2-(5-Chloro-2-fluoro-phenyl)-5-methoxy-pyrimidin-4-ylamino]-N-(3-[isopropyl-[2-(3,4,5-trihydroxy-6-hydroxymethyl-tetrahydro-pyran-2-yl)-acetyl]-amino]-propyl)-nicotinamide]: 7.33.
The same measure for `CC(C)c1cnc(-c2cc(Cl)ccc2F)nc1Nc1ccncc1C(=O)NC1(CO)CC1` [Compound 150, 4-[2-(5-Chloro-2-fluoro-phenyl)-5-isopropyl-pyrimidin-4-ylamino]-N-(1-hydroxymethyl-cyclopropyl)-nicotinamide]: 8.00.
The same measure for `COc1cnc(-c2cc(Cl)ccc2F)nc1Nc1ccncc1C(=O)NCCNCCC1O[C@H](CO)[C@@H](O)[C@H](O)[C@@H]1O` (stereo partly shown) [Compound 151]: 8.40; for `COc1cnc(-c2cc(Cl)ccc2F)nc1Nc1ccncc1C(=O)NC1CCN(CCC2O[C@H](CO)[C@@H](O)[C@H](O)[C@@H]2O)CC1` (stereo partly shown) [Compound 152, 4-[2-(5-Chloro-2-fluoro-phenyl)-5-methoxy-pyrimidin-4-ylamino]-N-{1-[2-(3,4,5-trihydroxy-6-hydroxymethyl-tetrahydro-pyran-2-yl)-ethyl]-piperidin-4-yl}-nicotinamide]: 7.55; for `COc1cnc(-c2cc(Cl)ccc2F)nc1Nc1ccncc1C(=O)NCCCN(CCC1O[C@H](CO)[C@@H](O)[C@H](O)[C@@H]1O)C(C)C` (stereo partly shown) [Compound 153, 4-[2-(5-Chloro-2-fluoro-phenyl)-5-methoxy-pyrimidin-4-ylamino]-N-(3-{isopropyl-[2-(3,4,5-trihydroxy-6-hydroxymethyl-tetrahydro-pyran-2-yl)-ethyl]-amino}-propyl)-nicotinamide]: 7.72.

The values are drawn from patent US20060281763A1, “Carboxamide inhibitors of TGFbeta” (priority 2005, published 2006).
